Measured values as given in ChEMBL document CHEMBL1932941, “3-mercapto-1,2,4-triazoles and N-acylated thiosemicarbazides as metallo-β-lactamase inhibitors” (Bioorg Med Chem Lett, 2012).
Each block holds one compound with its values, some of them ahead of it.

How the values were obtained:
[1] = Solubility of the compound; type: physicochemical
[2] = target: Beta-lactamase (Pseudomonas aeruginosa) (UniProt Q79MP6); assay: Inhibition of Pseudomonas aeruginosa beta-lactamase IMP-1 expressed in Escherichia coli BL21(DE3) at 100 uM using CENTA as chromogenic substrate
[3] = target: Beta-lactamase (Pseudomonas aeruginosa) (UniProt Q79MP6); assay: Inhibition of Pseudomonas aeruginosa beta-lactamase IMP-1 expressed in Escherichia coli BL21(DE3) at 10 uM using CENTA as chromogenic substrate
[4] = target: Beta-lactamase (Pseudomonas aeruginosa) (UniProt Q79MP6); assay: Uncompetitive inhibition of Pseudomonas aeruginosa beta-lactamase IMP-1 assessed as formation of 4-nitrothiophenolate at pH 7 using CENTA as chromogenic substrate
[5] = target: Beta-lactamase (Pseudomonas aeruginosa) (UniProt Q79MP6); assay: Competitive inhibition of Pseudomonas aeruginosa beta-lactamase IMP-1 assessed as formation of 4-nitrothiophenolate at pH 7 using CENTA as chromogenic substrate
[6] = target: Beta-lactamase (Pseudomonas aeruginosa) (UniProt Q79MP6); assay: Inhibition of Pseudomonas aeruginosa beta-lactamase IMP-1 expressed in Escherichia coli BL21(DE3) at 1000 uM using CENTA as chromogenic substrate

Sequence of Beta-lactamase (Pseudomonas aeruginosa) (Q79MP6 19-246 limits assumed): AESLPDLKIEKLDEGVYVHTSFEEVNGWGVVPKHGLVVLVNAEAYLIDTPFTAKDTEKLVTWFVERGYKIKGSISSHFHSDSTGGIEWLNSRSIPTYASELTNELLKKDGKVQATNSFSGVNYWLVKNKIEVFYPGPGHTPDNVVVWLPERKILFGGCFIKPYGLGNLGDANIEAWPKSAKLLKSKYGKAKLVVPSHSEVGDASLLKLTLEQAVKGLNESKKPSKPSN

Structure (SMILES): NC(=S)NNC(=O)c1ccc(C(=O)c2ccc([N+](=O)[O-])cc2)cc1
- inhibition [3]: 45%
- Kiuc [4]: 20 µM
- Kic [5]: 11 µM

Structure (SMILES): NC(=S)NNC(=O)c1ccc(C(=O)c2cccc([N+](=O)[O-])c2)cc1
- inhibition [3]: 45%
- Kiuc [4]: 15 µM
- Kic [5]: 16 µM

Structure (SMILES): NC(=S)NNC(=O)c1cccc([N+](=O)[O-])c1
- inhibition [3]: 30%

Structure (SMILES): NC(=S)NNC(=O)c1ccc(Cc2ccccc2)cc1
- inhibition [3]: 26%
- Kiuc [4]: 37 µM
- Kic [5]: 18 µM

Structure (SMILES): NC(=S)NNC(=O)c1ccccc1C(=O)O
- inhibition [3]: 0%

Structure (SMILES): NC(=S)NNC(=O)CCC(=O)O
- inhibition [3]: 13%

Structure (SMILES): CNC(=S)NNC(=O)C(C)(C)C
- inhibition [3]: 0%

Structure (SMILES): NC(S)=NNC(=O)c1ccccc1
- inhibition [3]: 22%
- Kiuc [4]: 30 µM
- Kic [5]: 19 µM

Structure (SMILES): Cc1ccc(C(=O)c2ccc(C(=O)NNC(N)=S)cc2)cc1
- inhibition [3]: 38%
- Kiuc [4]: 20 µM
- Kic [5]: 41 µM

Structure (SMILES): NC(=S)NNC(=O)c1ccc(C(=O)c2ccccc2)cc1
- inhibition [3]: 34%
- Kiuc [4]: 26 µM
- Kic [5]: 13 µM

Structure (SMILES): C[C@H](CS)C(=O)N1CCC[C@H]1C(=O)O
- Kiuc [4]: > 2000 µM

Structure (SMILES): NC(=S)NNC(=O)c1ccc(C(=O)c2ccccc2Cl)cc1
- inhibition [3]: 51%
- Kiuc [4]: 13 µM
- Kic [5]: 14 µM

Structure (SMILES): Sc1n[nH]c(-c2ccccc2)n1
- inhibition [6]: 0%

Structure (SMILES): NC(=S)NNC(=O)CCCC(=O)O
- inhibition [3]: 8%

Other lines, results leading:

- solubility [1]: Insoluble
Structure (SMILES): CCCCCCSc1nnc(C(C)(C)C)[nH]1

- inhibition [2]: 10%
- inhibition [3]: 10%
Structure (SMILES): O=C(O)CCc1nnc(S)[nH]1

- inhibition [6]: 33%
Structure (SMILES): Cc1nnc(S)[nH]1

- inhibition [2]: 7%
- inhibition [3]: 0%
Structure (SMILES): O=C(O)c1ccccc1-c1nnc(S)[nH]1

- solubility [1]: Insoluble
Structure (SMILES): CCCCCCc1nnc(S)[nH]1

- inhibition [6]: 0%
Structure (SMILES): Cc1nnc[nH]1

- inhibition [2]: 44%
- inhibition [3]: 10%
- Kiuc [4]: 56 µM
- Kic [5]: 75 µM
Structure (SMILES): O=C(c1ccccc1)c1ccc(-c2nnc(S)[nH]2)cc1

- inhibition [6]: 45%
Structure (SMILES): FC(F)(F)c1nnc(S)[nH]1

- inhibition [2]: 5%
- inhibition [3]: 0%
Structure (SMILES): O=C(O)CCCc1nnc(S)[nH]1

- inhibition [6]: 32%
Structure (SMILES): CC(C)(C)c1nnc(S)[nH]1

- inhibition [6]: 51%
Structure (SMILES): Cn1c(S)nnc1C(F)(F)F

- inhibition [6]: 32%
Structure (SMILES): CCc1nnc(S)[nH]1

- solubility [1]: Insoluble
Structure (SMILES): O=[N+]([O-])c1cccc(-c2nnc(S)[nH]2)c1

- inhibition [6]: 10%
Structure (SMILES): CSc1nnc(C(C)(C)C)[nH]1

- inhibition [3]: 0%
Structure (SMILES): CC(C)(C)C(=O)NNC(N)=S
